In ChEMBL document CHEMBL3351598, “Strategies for the modulation of phase II metabolism in a series of PKCε inhibitors” (Bioorg Med Chem Lett, 2014):

Experiment: AUC in beagle dog at 10 mg/kg, iv bolus dose
Assay type: ADME, organism-based, Canis lupus familiaris
Parameters: dose 10 mg/kg, route intravenous
Settings: plasma

Row | SMILES | AUC [ng·h/mL]
1 | N#CC1(c2cc(CCO)cc(-c3ccnc4[nH]nc(C(F)(F)F)c34)c2)CC1 | 130
2 | N#CC1(c2cc(C[C@@H](O)CO)cc(-c3ccnc4[nH]nc(C(F)(F)F)c34)c2)CC1 | 4400
